Laboratory results published in patent US20240158446A1, “CYCLIC COMPOUND HAVING SELECTIVE INHIBITORY ACTION ON KRAS OVER HRAS AND NRAS” (CHUGAI SEIYAKU KABUSHIKI KAISHA, priority 2021, published 2024).
Read-outs that look alike come from different tables or passages of the source. Where a SMILES comes first, the peptide text is derived from it. Bridges are numbered along the chain shown (N, C = ends). [ ]: non-standard residue; d: D form. The star is where a group is joined. hPhe(3-Cl-4-CF3) = N[C@@H](CCc1ccc(C(F)(F)F)c(Cl)c1)C(=O)O; 3Oxa8azabicyclo(3.2.1)octane = C1CC2COCC1N2*; NEtPhe(4-Me) = CCN[C@@H](Cc1ccc(C)cc1)C(=O)O; NMeGly(cPent) = CN[C@H](C(=O)O)C1CCCC1; NMeD = CN[C@@H](CC(=O)O)C(=O)O; NMeL = CN[C@@H](CC(C)C)C(=O)O; NMeAib = CNC(C)(C)C(=O)O; Nle = CCCC[C@H](N)C(=O)O; Piperidide = C1CCN(*)CC1; Ac5c = NC1(C(=O)O)CCCC1; Sar = CNCC(=O)O

Tests used:
[1] = test system: human lung cancer strain NCI-H441;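 also: cell proliferation inhibition after four days measured by CellTiter-Glo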
[2] = biological target: GDP-bound KRAS wild-type protein (Homo sapiens, UniProt P01116); experiment: Binding to KRAS by surface plasmon resonance (SPR), Single Cycle Kinetics; details: SPR, Single Cycle Kinetics, GDP-bound KRAS wild-type protein; read-out: KRAS KD
[3] = biological target: GDP-bound NRAS wild-type protein (Homo sapiens, UniProt P01111); experiment: Binding to NRAS by surface plasmon resonance (SPR), Single Cycle Kinetics; details: SPR, GDP-bound NRAS wild-type protein vs GDP-bound KRAS wild-type protein
[4] = biological target: GDP-bound HRAS wild-type protein (Homo sapiens, UniProt P01112); experiment: Binding to HRAS by surface plasmon resonance (SPR), Single Cycle Kinetics; details: SPR, GDP-bound HRAS wild-type protein vs GDP-bound KRAS wild-type protein
GDP-bound HRAS wild-type protein, sequence (P01112 whole entry): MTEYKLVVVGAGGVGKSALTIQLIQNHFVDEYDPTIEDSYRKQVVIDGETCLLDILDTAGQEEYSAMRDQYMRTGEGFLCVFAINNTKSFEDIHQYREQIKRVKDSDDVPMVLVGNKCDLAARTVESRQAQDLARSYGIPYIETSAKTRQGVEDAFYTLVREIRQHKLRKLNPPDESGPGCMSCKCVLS

GDP-bound KRAS wild-type protein, sequence (P01116 whole entry): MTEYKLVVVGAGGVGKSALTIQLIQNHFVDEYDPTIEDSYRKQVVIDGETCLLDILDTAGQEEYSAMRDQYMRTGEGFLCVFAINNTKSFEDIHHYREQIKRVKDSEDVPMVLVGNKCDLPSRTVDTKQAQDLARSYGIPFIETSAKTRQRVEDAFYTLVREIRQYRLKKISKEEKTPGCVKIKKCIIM
GDP-bound NRAS wild-type protein, sequence (P01111 whole entry): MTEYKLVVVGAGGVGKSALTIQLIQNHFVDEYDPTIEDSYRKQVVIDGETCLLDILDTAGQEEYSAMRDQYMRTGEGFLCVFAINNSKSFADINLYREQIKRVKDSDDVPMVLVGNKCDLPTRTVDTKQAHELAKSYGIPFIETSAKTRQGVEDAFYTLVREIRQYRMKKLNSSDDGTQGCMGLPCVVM

Compound | IC50 ([1]; read-out: NCI-H441 IC50, NCI-H441 cells, four days, CellTiter-Glo) | IC50 [1] | Kd [2] | NRAS/KRAS (ratio of KD value for NRAS to KD value for KRAS) [3] | HRAS/KRAS (ratio of KD value for HRAS to KD value for KRAS) [4]
CCCC[C@@H]1NC(=O)[C@H](CCc2ccc(C(F)(F)F)c(Cl)c2)NC(=O)CN(C)C(=O)[C@H](Cc2ccc(C)cc2)N(CC)C(=O)CN(C)C(=O)CN(C)C(=O)[C@H]([C@@H](C)CC)NC(=O)[C@H](CC(C)C)N(C)C(=O)C[C@@H](C(=O)N2CCCCC2)N(C)C(=O)[C@H](CC(C)C)NC(=O)C(C)(C)N(C)C1=O [PP0050] ([NMeL]I[Sar][Sar][NEtPhe(4-Me)][Sar][hPhe(3-Cl-4-CF3)][Nle][NMeAib]L[NMeD]-Piperidide; lactam N-11) | 499 nM |  |  |  | 
CC[C@H](C)[C@@H]1NC(=O)[C@H](CC(C)C)N(C)C(=O)C[C@@H](C(=O)N2C3CCC2COC3)N(C)C(=O)[C@H](C2CCCC2)N(C)C(=O)C2(CCCC2)NC(=O)[C@@H]2CCCN2C(=O)[C@H](CCc2ccc(C(F)(F)F)c(Cl)c2)NC(=O)CN(C)C(=O)[C@H](Cc2ccc(C)cc2)N(CC)C(=O)CN(C)C(=O)CN(C)C1=O [PP0051] ([NMeL]I[Sar][Sar][NEtPhe(4-Me)][Sar][hPhe(3-Cl-4-CF3)]P[Ac5c][NMeGly(cPent)][NMeD]-{3Oxa8azabicyclo(3.2.1)octane}; lactam N-11) |  | 22.1 nM |  |  | 
CCO[C@@H]1C[C@H]2C(=O)N(C)C3(CC(C)(C)C3)C(=O)N(C)[C@@H](C3CCCC3)C(=O)N(C)[C@H](C(=O)N(C)C)CC(=O)N(C)[C@H]3CCC/C=C/c4ccc(cc4)C[C@@H](C(=O)N(C)CC(=O)N[C@@H](CCc4cc(F)c(C(F)(F)F)c(F)c4)C(=O)N2C1)N1CC/C=C\C[C@@H](C1=O)N(C)C(=O)CN(C)C(=O)[C@H]([C@@H](C)CC)NC3=O [PP3060] |  |  | 0.042 nM | B (a compound having 3 or more and less than 10 is denoted as B) | B (a compound having 3 or more and less than 10 is denoted as B)
CCO[C@@H]1C[C@H]2C(=O)N(C)C3(CC(C)(C)C3)C(=O)N(C)[C@@H](C3CCCC3)C(=O)N(C)[C@H](C(=O)N(C)C)CC(=O)N(C)[C@H]3CCCC/C=C/c4ccc(cc4)C[C@@H](C(=O)N(C)CC(=O)N[C@@H](CCc4ccc(Cl)c(Cl)c4)C(=O)N2C1)N1CC/C=C\C[C@@H](C1=O)N(C)C(=O)CN(C)C(=O)[C@H]([C@@H](C)CC)NC3=O [PP3062] |  |  | 0.066 nM | A (a compound having 10 or more and less than 20 is denoted as A) | A (a compound having 10 or more and less than 20 is denoted as A)
CCCO[C@@H]1C[C@H]2C(=O)NC3(CC(C)(C)C3)C(=O)N(C)[C@@H](C(CC)CC)C(=O)N(C)[C@H](C(=O)N(C)C)CC(=O)N(C)[C@H]3CCCc4ccc(cc4)C[C@@H](C(=O)N(C)CC(=O)N[C@@H](CCc4ccc(C(F)(F)F)c(OC)c4)C(=O)N2C1)N1CC/C=C\C[C@@H](C1=O)N(C)C(=O)CN(C)C(=O)[C@H]([C@@H](C)CC)NC3=O [PP3063] |  |  | 0.56 nM | B (a compound having 3 or more and less than 10 is denoted as B) | B (a compound having 3 or more and less than 10 is denoted as B)
CCCO[C@@H]1C[C@H]2C(=O)NC3(CC(C)(C)C3)C(=O)N(C)[C@@H](C3CCCC3)C(=O)N(C)[C@H](C(=O)N3CCCCC3)CC(=O)N(C)[C@H]3CCCc4ccc(cc4)C[C@@H](C(=O)N(C)CC(=O)N[C@@H](CCc4ccc(C(F)(F)F)c(OC)c4)C(=O)N2C1)N1CC/C=C\C[C@@H](C1=O)N(C)C(=O)CN(C)C(=O)[C@H]([C@@H](C)CC)NC3=O [PP3064] |  |  | 0.37 nM | B (a compound having 3 or more and less than 10 is denoted as B) | B (a compound having 3 or more and less than 10 is denoted as B)
CCCO[C@@H]1C[C@H]2C(=O)NC3(CC(C)(C)C3)C(=O)N(C)[C@@H](C3CCCC3)C(=O)N(C)[C@H](C(=O)N3CCCC3)CC(=O)N(C)[C@H]3CCCc4ccc(cc4)C[C@@H](C(=O)N(C)CC(=O)N[C@@H](CCc4ccc(C(F)(F)F)c(OC)c4)C(=O)N2C1)N1CC/C=C\C[C@@H](C1=O)N(C)C(=O)CN(C)C(=O)[C@H]([C@@H](C)CC)NC3=O [PP3065] |  |  | 0.23 nM | A (a compound having 10 or more and less than 20 is denoted as A) | B (a compound having 3 or more and less than 10 is denoted as B)
CCO[C@@H]1C[C@H]2C(=O)NC3(CC(C)(C)C3)C(=O)N(C)[C@@H](C3CCCC3)C(=O)N(C)[C@H](C(=O)N(C)C)CC(=O)N(C)[C@H]3CCCCCCc4ccc(cc4)C[C@@H](C(=O)N(C)CC(=O)N[C@@H](CCc4ccc(C(F)(F)F)c(OC)c4)C(=O)N2C1)N1CC/C=C\C[C@@H](C1=O)N(C)C(=O)CN(C)C(=O)[C@H]([C@@H](C)CC)NC3=O [PP3066] |  |  | 0.042 nM | A (a compound having 10 or more and less than 20 is denoted as A) | B (a compound having 3 or more and less than 10 is denoted as B)
CC[C@H](C)[C@@H]1NC(=O)[C@@H]2CCCCCCc3ccc(cc3)C[C@@H](C(=O)N(C)CC(=O)N[C@@H](CCc3ccc(C(F)(F)F)c(OC)c3)C(=O)N3C[C@H](OC(C)C)C[C@H]3C(=O)NC3(CC(C)(C)C3)C(=O)N(C)[C@@H](C3CCCC3)C(=O)N(C)[C@H](C(=O)N(C)C)CC(=O)N2C)N2CC/C=C\C[C@@H](C2=O)N(C)C(=O)CN(C)C1=O [PP3067] |  |  | 0.053 nM | A (a compound having 10 or more and less than 20 is denoted as A) | B (a compound having 3 or more and less than 10 is denoted as B)
CC[C@H](C)[C@@H]1NC(=O)[C@@H]2CCCCCCc3ccc(cc3)C[C@@H](C(=O)N(C)CC(=O)N[C@@H](CCc3ccc(C(F)(F)F)c(OC)c3)C(=O)N3C[C@H](OC4CCC4)C[C@H]3C(=O)NC3(CC(C)(C)C3)C(=O)N(C)[C@@H](C3CCCC3)C(=O)N(C)[C@H](C(=O)N(C)C)CC(=O)N2C)N2CC/C=C\C[C@@H](C2=O)N(C)C(=O)CN(C)C1=O [PP3068] |  |  | 0.05 nM | A (a compound having 10 or more and less than 20 is denoted as A) | B (a compound having 3 or more and less than 10 is denoted as B)
CC[C@H](C)[C@@H]1NC(=O)[C@@H]2CCCCCCc3ccc(cc3)C[C@@H](C(=O)N(C)CC(=O)N[C@@H](CCc3ccc(C(F)(F)F)c(OC)c3)C(=O)N3CC4(CC4)C[C@H]3C(=O)NC3(CC(C)(C)C3)C(=O)N(C)[C@@H](C3CCCC3)C(=O)N(C)[C@H](C(=O)N(C)C)CC(=O)N2C)N2CC/C=C\C[C@@H](C2=O)N(C)C(=O)CN(C)C1=O [PP3069] |  |  | 0.034 nM | A (a compound having 10 or more and less than 20 is denoted as A) | B (a compound having 3 or more and less than 10 is denoted as B)
CCO[C@@H]1C[C@H]2C(=O)NC3(CC(C)(C)C3)C(=O)N(C)[C@@H](C3CCCC3)C(=O)N(C)[C@H](C(=O)N(C)C)CC(=O)N(C)[C@H]3CCCCCCc4ccc(cc4)C[C@@H](C(=O)N(C)CC(=O)N[C@@H](CCc4ccc(Cl)c(Cl)c4)C(=O)N2C1)N1CC/C=C\C[C@@H](C1=O)N(C)C(=O)CN(C)C(=O)[C@H]([C@@H](C)CC)NC3=O [PP3071] |  |  | 0.12 nM | A (a compound having 10 or more and less than 20 is denoted as A) | B (a compound having 3 or more and less than 10 is denoted as B)
